Assay results reported in US20120121591A1 (priority 2009, published 2012).

Experiments:
Assay type in all cases: cell-based
[1] = tested on: IL-2 secretion from T cells in human whole blood; conditions: read-out: WB (IL-2) IC50 (nM, Avg)
[2] = tested on: IFN-g secretion from T cells in human whole blood; conditions: read-out: WB (IFNg) IC50 (nM, Avg)
hKv1.3 = hKv1.3 (Homo sapiens, UniProt P22001); test: cell-based; conditions: Kv1.3 (IWQ) IC50 (nM, Avg)
Sequence of hKv1.3 (P22001 whole entry): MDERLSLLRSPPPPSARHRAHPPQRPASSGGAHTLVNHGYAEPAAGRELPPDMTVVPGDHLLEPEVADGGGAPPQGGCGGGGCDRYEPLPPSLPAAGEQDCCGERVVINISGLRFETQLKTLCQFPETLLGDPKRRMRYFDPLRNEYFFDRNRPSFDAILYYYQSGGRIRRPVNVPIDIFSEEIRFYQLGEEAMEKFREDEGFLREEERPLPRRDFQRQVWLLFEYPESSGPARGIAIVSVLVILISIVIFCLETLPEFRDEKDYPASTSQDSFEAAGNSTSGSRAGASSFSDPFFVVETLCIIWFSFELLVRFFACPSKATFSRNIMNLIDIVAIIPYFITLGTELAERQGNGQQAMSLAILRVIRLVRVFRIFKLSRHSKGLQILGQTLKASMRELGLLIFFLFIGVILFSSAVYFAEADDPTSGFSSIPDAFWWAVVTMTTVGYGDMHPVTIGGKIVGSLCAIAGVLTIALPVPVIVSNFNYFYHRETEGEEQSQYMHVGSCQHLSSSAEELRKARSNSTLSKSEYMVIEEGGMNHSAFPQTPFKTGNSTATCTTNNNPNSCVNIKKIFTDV

Work on `CCCC[C@@H]1NC(=O)[C@H](CO)NC(=O)[C@H](Cc2c[nH]cn2)NC(=O)[C@H](CCCCN)NC(=O)[C@@H]2CSSC[C@@H]3NC(=O)[C@H]([C@@H](C)O)NC(=O)[C@H](CCCNC(=N)N)NC(=O)[C@H](CCCNC(=N)N)NC(=O)[C@H](CSSC[C@H](NC(=O)[C@H](CCCNC(=N)N)NC(=O)[C@H](CO)NC(=O)[C@H](CCCCN)NC(=O)[C@@H]4CCCN4C(=O)[C@H]([C@@H](C)CC)NC(=O)[C@H]([C@@H](C)O)NC(=O)[C@H](CC(=O)O)NC(=O)[C@H](CCC(=O)O)NC(=O)[C@@H](NC(=O)[C@H](CO)NC(=O)[C@@H](N)CCCNC(=N)N)CSSC[C@@H](C(N)=O)NC(=O)[C@H]([C@@H](C)O)NC(=O)CNC3=O)C(=O)N[C@@H]([C@@H](C)O)C(=O)N[C@@H](C)C(=O)N[C@@H](C)C(=O)N[C@@H](CCCCN)C(=O)N2)NC(=O)[C@H](Cc2ccccc2)NC(=O)[C@H](CO)NC(=O)[C@H](CC(C)C)NC(=O)[C@H](CCCNC(=N)N)NC(=O)[C@H](Cc2ccc(O)cc2)NC(=O)[C@H](CCCCN)NC1=O` [[Glu4,Ala15,Lys16,Nle21, Arg30]ShK-amide] yielded an IC50 [1] of 0.647 nM, an IC50 [2] of 0.816 nM and an IC50 (hKv1.3) of 0.118 nM.
`CC[C@H](C)[C@@H]1NC(=O)[C@H]([C@@H](C)O)NC(=O)[C@H](CC(=O)O)NC(=O)[C@H](CCC(=O)O)NC(=O)[C@@H](NC(=O)[C@H](CO)NC(=O)[C@@H](N)CCCNC(=N)N)CSSC[C@@H](C(=O)O)NC(=O)[C@H]([C@@H](C)O)NC(=O)CNC(=O)[C@@H]2CSSC[C@@H]3NC(=O)[C@H](CCCCN)NC(=O)[C@H](C)NC(=O)[C@H](C)NC(=O)[C@H]([C@@H](C)O)NC(=O)[C@H](CSSC[C@H](NC(=O)[C@H](Cc4ccccc4)NC(=O)[C@H](CO)NC(=O)[C@H](CC(C)C)NC(=O)[C@H](CCCNC(=N)N)NC(=O)[C@H](Cc4ccc(O)cc4)NC(=O)[C@H](CCCCN)NC(=O)[C@H](CCSC)NC(=O)[C@H](CO)NC(=O)[C@H](Cc4c[nH]cn4)NC(=O)[C@H](CCCCN)NC3=O)C(=O)N[C@@H](CCCNC(=N)N)C(=O)N[C@@H](CCCNC(=N)N)C(=O)N[C@@H]([C@@H](C)O)C(=O)N2)NC(=O)[C@H](CCCNC(=N)N)NC(=O)[C@H](CCCNC(=N)N)NC(=O)[C@H](CCCCN)NC(=O)[C@@H]2CCCN2C1=O` [[Glu4,Arg10,30,A1a15,Lys16]ShK] showed an IC50 [1] of 0.209 nM, an IC50 [2] of 0.305 nM and an IC50 (hKv1.3) of 0.14 nM.
`CC[C@H](C)[C@@H]1NC(=O)[C@H]([C@@H](C)O)NC(=O)[C@H](CC(=O)O)NC(=O)[C@H](CCC(=O)O)NC(=O)[C@@H](NC(=O)[C@H](CO)NC(=O)[C@@H](N)CCCNC(=N)N)CSSC[C@@H](C(=O)N[C@@H](C)C(=O)O)NC(=O)[C@H]([C@@H](C)O)NC(=O)CNC(=O)[C@@H]2CSSC[C@@H]3NC(=O)[C@H](CCCCN)NC(=O)[C@H](Cc4ccccc4)NC(=O)[C@H](C)NC(=O)[C@H]([C@@H](C)O)NC(=O)[C@H](CSSC[C@H](NC(=O)[C@H](Cc4ccccc4)NC(=O)[C@H](CO)NC(=O)[C@H](CC(C)C)NC(=O)[C@H](CCCNC(=N)N)NC(=O)[C@H](Cc4ccc(O)cc4)NC(=O)[C@H](CCCCN)NC(=O)[C@H](CCC(N)=O)NC(=O)[C@H](CO)NC(=O)[C@H](Cc4c[nH]cn4)NC(=O)[C@H](CCCCN)NC3=O)C(=O)N[C@@H](CCCNC(=N)N)C(=O)N[C@@H](CCCCN)C(=O)N[C@@H]([C@@H](C)O)C(=O)N2)NC(=O)[C@H](CCCNC(=N)N)NC(=O)[C@H](CO)NC(=O)[C@H](CCCCN)NC(=O)[C@@H]2CCCN2C1=O` [[Glu4,Lys16,Gln21]ShK-Ala] gave an IC50 [1] of 0.137 nM, an IC50 [2] of 0.265 nM and an IC50 (hKv1.3) of 26.4 nM.
Work on `CCCC[C@@H]1NC(=O)[C@H](CO)NC(=O)[C@H](Cc2c[nH]cn2)NC(=O)[C@H](CCCCN)NC(=O)[C@@H]2CSSC[C@@H]3NC(=O)[C@H]([C@@H](C)O)NC(=O)[C@H](CCCCN)NC(=O)[C@H](CCCNC(=N)N)NC(=O)[C@H](CSSC[C@H](NC(=O)[C@H](CCCNC(=N)N)NC(=O)[C@H](CO)NC(=O)[C@H](CCCCN)NC(=O)[C@@H]4CCCN4C(=O)[C@H]([C@@H](C)CC)NC(=O)[C@H]([C@@H](C)O)NC(=O)[C@H](CC(=O)O)NC(=O)[C@H](CCC(=O)O)NC(=O)[C@@H](NC(=O)[C@H](CO)NC(=O)[C@@H](N)CCCNC(=N)N)CSSC[C@@H](C(=O)N[C@@H](C)C(=O)O)NC(=O)[C@H]([C@@H](C)O)NC(=O)CNC3=O)C(=O)N[C@@H]([C@@H](C)O)C(=O)N[C@@H](C)C(=O)N[C@@H](Cc3ccccc3)C(=O)N[C@@H](CCCCN)C(=O)N2)NC(=O)[C@H](Cc2ccccc2)NC(=O)[C@H](CO)NC(=O)[C@H](CC(C)C)NC(=O)[C@H](CCCNC(=N)N)NC(=O)[C@H](Cc2ccc(O)cc2)NC(=O)[C@H](CCCCN)NC1=O` [[Glu4,Lys16,N1e21]ShK-Ala] yielded an IC50 [1] of 0.327 nM, an IC50 [2] of 0.987 nM and an IC50 (hKv1.3) of 33.3 nM.
With `CCC[C@@H]1NC(=O)[C@H](CO)NC(=O)[C@H](Cc2c[nH]cn2)NC(=O)[C@H](CCCCN)NC(=O)[C@@H]2CSSC[C@@H]3NC(=O)[C@H]([C@@H](C)O)NC(=O)[C@H](CCCCN)NC(=O)[C@H](CCCNC(=N)N)NC(=O)[C@H](CSSC[C@H](NC(=O)[C@H](CCCNC(=N)N)NC(=O)[C@H](CO)NC(=O)[C@H](CCCCN)NC(=O)[C@@H]4CCCN4C(=O)[C@H]([C@@H](C)CC)NC(=O)[C@H]([C@@H](C)O)NC(=O)[C@H](CC(=O)O)NC(=O)[C@H](CCC(=O)O)NC(=O)[C@@H](NC(=O)[C@H](CO)NC(=O)[C@@H](N)CCCNC(=N)N)CSSC[C@@H](C(=O)N[C@@H](C)C(=O)O)NC(=O)[C@H]([C@@H](C)O)NC(=O)CNC3=O)C(=O)N[C@@H]([C@@H](C)O)C(=O)N[C@@H](C)C(=O)N[C@@H](Cc3ccccc3)C(=O)N[C@@H](CCCCN)C(=O)N2)NC(=O)[C@H](Cc2ccccc2)NC(=O)[C@H](CO)NC(=O)[C@H](CC(C)C)NC(=O)[C@H](CCCNC(=N)N)NC(=O)[C@H](Cc2ccc(O)cc2)NC(=O)[C@H](CCCCN)NC1=O` [[Glu4,Lys16,Nva21]ShK-Ala] the IC50 [1] was 0.208 nM, the IC50 [2] was 0.368 nM and the IC50 (hKv1.3) was 33.3 nM.
With `CC[C@H](C)[C@@H]1NC(=O)[C@H]([C@@H](C)O)NC(=O)[C@H](CC(=O)O)NC(=O)[C@H](CCC(=O)O)NC(=O)[C@@H](NC(=O)[C@H](CO)NC(=O)[C@@H](N)CCCNC(=N)N)CSSC[C@@H](C(N)=O)NC(=O)[C@H]([C@@H](C)O)NC(=O)CNC(=O)[C@@H]2CSSC[C@@H]3NC(=O)[C@H](CCCCN)NC(=O)[C@H](Cc4ccccc4)NC(=O)[C@H](C)NC(=O)[C@H]([C@@H](C)O)NC(=O)[C@H](CSSC[C@H](NC(=O)[C@H](Cc4ccccc4)NC(=O)[C@H](CO)NC(=O)[C@H](CC(C)C)NC(=O)[C@H](CCCNC(=N)N)NC(=O)[C@H](Cc4ccc(O)cc4)NC(=O)[C@H](CCCCN)NC(=O)[C@H](CCSC)NC(=O)[C@H](CO)NC(=O)[C@H](Cc4c[nH]cn4)NC(=O)[C@H](CCCCN)NC3=O)C(=O)N[C@@H](CCCNC(=N)N)C(=O)N[C@@H](CCCCN)C(=O)N[C@@H]([C@@H](C)O)C(=O)N2)NC(=O)[C@H](CCCNC(=N)N)NC(=O)[C@H](CO)NC(=O)[C@H](CCCCN)NC(=O)[C@@H]2CCCN2C1=O` [[Glu4,Lys16]ShK-amide] the IC50 [1] was 0.071 nM, the IC50 [2] was 0.068 nM and the IC50 (hKv1.3) was 0.127 nM.
With `CC[C@H](C)[C@@H]1NC(=O)[C@H]([C@@H](C)O)NC(=O)[C@H](CC(=O)O)NC(=O)[C@H](CCC(=O)O)NC(=O)[C@@H](NC(=O)[C@H](CO)NC(=O)[C@@H](N)CCCNC(=N)N)CSSC[C@@H](C(N)=O)NC(=O)[C@H]([C@@H](C)O)NC(=O)CNC(=O)[C@@H]2CSSC[C@@H]3NC(=O)[C@H](CCCCN)NC(=O)[C@H](Cc4ccccc4)NC(=O)[C@H](C)NC(=O)[C@H]([C@@H](C)O)NC(=O)[C@H](CSSC[C@H](NC(=O)[C@H](Cc4ccccc4)NC(=O)[C@H](Cc4cccc5ccccc45)NC(=O)[C@H](CC(C)C)NC(=O)[C@H](CCCNC(=N)N)NC(=O)[C@H](Cc4ccc(O)cc4)NC(=O)[C@H](CCCCN)NC(=O)[C@H](CCSC)NC(=O)[C@H](CO)NC(=O)[C@H](Cc4c[nH]cn4)NC(=O)[C@H](CCCCN)NC3=O)C(=O)N[C@@H](CCCCN)C(=O)N[C@@H](CCCNC(=N)N)C(=O)N[C@@H]([C@@H](C)O)C(=O)N2)NC(=O)[C@H](CCCNC(=N)N)NC(=O)[C@H](CO)NC(=O)[C@H](CCCCN)NC(=O)[C@@H]2CCCN2C1=O` [[Glu4; Lys16,29;1-Na126;Arg30]ShK-amide] the IC50 [1] was 0.712 nM, the IC50 [2] was 0.598 nM and the IC50 (hKv1.3) was 0.384 nM.
With `CC[C@H](C)[C@@H]1NC(=O)[C@H]([C@@H](C)O)NC(=O)[C@H](CC(=O)O)NC(=O)[C@H](CCC(=O)O)NC(=O)[C@@H](NC(=O)[C@H](CO)NC(=O)[C@@H](N)CCCNC(=N)N)CSSC[C@@H](C(N)=O)NC(=O)[C@H]([C@@H](C)O)NC(=O)CNC(=O)[C@@H]2CSSC[C@@H]3NC(=O)[C@H](CCCCN)NC(=O)[C@H](Cc4ccccc4)NC(=O)[C@H](C)NC(=O)[C@H]([C@@H](C)O)NC(=O)[C@H](CSSC[C@H](NC(=O)[C@H](Cc4ccccc4)NC(=O)[C@H](CO)NC(=O)[C@H](CC(C)C)NC(=O)[C@H](CCCNC(=N)N)NC(=O)[C@H](Cc4ccc(O)cc4)NC(=O)[C@H](CCCCN)NC(=O)[C@H](CCSC)NC(=O)[C@H](CO)NC(=O)[C@H](Cc4c[nH]cn4)NC(=O)[C@H](CCCCN)NC3=O)C(=O)N[C@@H](CCCCN)C(=O)N[C@@H](CCCNC(=N)N)C(=O)N[C@@H]([C@@H](C)O)C(=O)N2)NC(=O)[C@H](CCCNC(=N)N)NC(=O)[C@H](CO)NC(=O)[C@H](CCCCN)NC(=O)[C@@H]2CCCN2C1=O` [[Glu4; Lys16,29;Arg30]ShK-amide] the IC50 [1] was 0.067 nM, the IC50 [2] was 0.28 nM and the IC50 (hKv1.3) was 0.104 nM.
